Experiments:
[1] = test system: Two-Spotted Spider Mites (Tetranychus urticae Koch); test: whole plant or invertebrate; assay type: in vivo; conditions: foliar, 500 ppm solution sprayed 2 ml/cup on kidney bean leaf discs, larvae, 25° C., after 96 hours
Procedure: The leaves of kidney bean plants were punched into 3 cm-diameter discs, using a leaf punch, and put onto moistured filter paper in a 7 cm-diameter styrol cup. Ten (10) larvae of two-spotted spider mites (Tetranychus urticae) were put to each leaf. […] The solution was sprayed over each cup in an amount of 2 ml/cup, using a rotary sprinkler, and the cups were stored in a thermostatic chamber at 25° C. […] Each compound was tested in that manner for two groups of cups.

[2] = test system: Cucurbit Leaf Beetles (Aulacophora femoralis Motschulsky); test: Insecticidal test for cucurbit leaf beetles; assay type: in vivo; conditions: 144 h, cucumber leaves dipped in 500 ppm solution, second instar nymphae, 25° C., after 6 days
Procedure: The leaves of cucumbers were dipped in this chemical solution for about 10 seconds, dried in air, and put into a laboratory dish. Ten (10) second instar nymphae of cucurbit leaf beetles (Aulacophora femoralis) were released in each dish. Each dish was covered with a cover, and stored in a thermostatic chamber at 25° C. […] Each compound was tested in that manner for two groups of dishes.

[3] = test system: Brown Rice Planthopper (Nilaparvata lugens Stal); test: Insecticidal test for brown rice planthopper; assay type: in vivo; conditions: 144 h, 500 ppm solution applied to rice stems and leaves, second instar nymphae, after 6 days
Source text: The stems and leaves of rice-plants in 1/20,000 are pot were sufficiently applied with the resulting solution. After the thus-applied chemical solution was dried in air, each pot was covered with a cylindrical cover. Ten (10) second instar nymphae of brown rice planthoppers (Nilaparvata lugens) were released in each pot. After having been thus covered, the pots were stored in a thermostatic chamber. After 6 days passed, the insects in each pot were observed, and the mortality thereof was determined according to the following equation. Each compound was tested in that manner for two groups of pots. Mortality (%)=([number of insect killed/(number of insect killed+number of living insect)]×100

[4] = test system: Diamond Back Moth (Plutella xylostella Linné); test: Insecticidal test for diamond back moth; assay type: in vivo; conditions: 144 h, cabbage leaves dipped in 500 ppm aqueous emulsion, second larvae, 25° C., after 6 days
Procedure: The leaves of cabbage were dipped in a 500 ppm aqueous emulsion of a compound of the invention for about 10 seconds. After having been dried in air, the thus-treated leaves were put into laboratory dishes. Ten (10) second larvae of diamond back moth (Plutella xylostella) were released in each dish. Each dish was covered with a perforated cover, and stored in a thermostatic chamber at 25° C. […] Each compound was tested in that manner for two groups of dishes.

[5] = test system: Green Peach Aphids (Myzus persicae Sulzer); test: Insecticidal test for green peach aphids; assay type: in vivo; conditions: 144 h, 500 ppm spray (2.5 mg/cm^2) on cabbage leaf, apterous adults, larvae and adults counted after 6 days
Procedure: Moistured filter paper was placed in each laboratory glass dish having an inner diameter of 3 cm, and a leaf cabbage having the same diameter as that of the dish was put on the filter paper. Four female, apterous adults of green peach aphids (Myzus persicae) were put on the cabbage leaf. Fllowing day, a chemical sample (2.5 mg/cm^2) was sprayed over the dishes, using a rotary sprinkler. […] After 6 days passed, the insects in each cylinder were observed, and mortality of the insects (larvae and adults) was determined according to the following equation. Each compound was tested in that manner for two groups of dishes. Mortality (%)=[number of insect killed/(number of insect killed+number of living insect)]×100

SMILES | mortality at 500 ppm [1] [%] | mortality at 500 ppm [2] [%] | mortality at 500 ppm [4] [%] | also measured
Cn1nc(Cl)c(C(O)=C(C#N)c2coc(C(C)(C)C)n2)c1Cl [V-40, 2-{2-tert-butyloxazol-4-yl}-3-(3,5-dichloro-1-methyl-pyrazol-4-yl)-3-hydroxyacrylonitrile] | ≥ 80 | 100 | – | –
Cn1nc(Cl)c(C(O)=C(C#N)c2csc(-c3ccccc3)n2)c1Cl [II-1, 3-(1-methyl-3,5-dichloropyrazol-4-yl)-2-(2-phenylthiazol-4-yl)-3-hydroxyacrylonitrile] | – | 100 | ≥ 80 | mortality at 500 ppm [3]: ≥ 80%
Cn1nc(Cl)c(C(O)=C(C#N)n2ccc(-c3c(F)cccc3F)n2)c1Cl [I-40, 2-{3-(2,6-difluorophenyl)pyrazol-1-yl}-3-(1-methyl-3,5-dichloropyrazol-4-yl)-3-hydroxyacrylonitrile] | ≥ 80 | 100 | ≥ 80 | mortality at 500 ppm [5]: ≥ 80%
Cn1nc(Cl)c(C(=O)OC(=C(C#N)c2ccc(C(F)(F)F)cc2)c2c(Cl)nn(C)c2Cl)c1Cl [IV-5, 2-(4-trifluoromethylphenyl)-3-(1-methyl-3,5-dichloropyrazol-4-yl)-3-(1-methyl-3,5-dichloropyrazole-4-carbonyloxy)acrylonitrile] | ≥ 80 | – | – | –
Cn1nc(C(F)(F)F)c(C(OC(=O)C(C)(C)C)=C(C#N)c2ccc(C(C)(C)C)cc2)c1Cl [IV-24, 2-(4-tert-butylphenyl)-3-(1-methyl-3-trifluoromethyl-5-chloropyrazol-4-yl)-3-pivaloyloxyacrylonitrile] | ≥ 80 | – | – | –
Cn1nc(Cl)c(C(O)=C(C#N)c2ccc(C(C)(C)C)cc2)c1Cl [IV-18, 2-(4-tert-butylphenyl)-3-(1-methyl-3,5-dichloropyrazol-4-yl)-3-hydroxyacrylonitrile] | ≥ 80 | – | – | –
Cc1nc(C(F)(F)F)c(C(OC(=O)c2ccccc2)=C(C#N)c2csc(C(C)(C)C)n2)s1 [II-75, 2-(2-tert-butylthiazol-4-yl)-3-(2-methyl-4-trifluoromethylthiazol-5-yl)-3-benzoyloxyacrylonitrile] | ≥ 80 | – | ≥ 80 | mortality at 500 ppm [3]: ≥ 80%; mortality at 500 ppm [5]: ≥ 80%
Cn1nc(Cl)c(C(=O)C(Br)c2ccccc2)c1Cl (stereo not shown) | – | – | – | melting point: 74.5 to 75.5 °C
COC(=O)OC(=C(C#N)c1ccc(C(C)(C)C)cc1)c1c(Cl)nn(C)c1Cl [IV-36, 2-(4-tert-butylphenyl)-3-(3,5-dichloro-1-methylpyrazol-4-yl)-3-methoxycarbonyloxyacrylonitrile] | ≥ 80 | – | – | –
CCOCOC(=C(C#N)c1coc(C(C)(C)C)n1)c1c(C(F)(F)F)nn(C)c1Cl [V-44, 2-(2-tert-butyloxazol-4-yl)-3-(5-chloro-1-methyl-3-trifluoromethylpyrazol-4-yl)-3-ethoxymethoxyacrylonitrile] | ≥ 80 | – | – | –
Cn1nc(C(F)(F)F)c(C(OC(=O)C(C)(C)C)=C(C#N)c2nc(C(C)(C)C)cs2)c1Cl [III-6, 3-(1-methyl-3-trifluoromethyl-5-chloropyrazol-4-yl)-2-(4-tert-butylthiazol-2-yl)-3-pivaloyloxyacrylonitrile] | ≥ 80 | 100 | ≥ 80 | mortality at 500 ppm [3]: ≥ 80%; mortality at 500 ppm [5]: ≥ 80%
Cn1nc(C(F)(F)F)c(C(O)=C(Br)n2ccc(-c3c(F)cccc3F)n2)c1Cl | – | – | – | melting point: 123 to 125 °C

Reference: patent US7566683B2, “Ethylene derivatives and pesticides containing said derivatives” (priority 1996, dated 2009)
